Test results published in patent US20230200390A1, “SELECTIVE HERBICIDES BASED ON SUBSTITUTED ISOXAZOLIN CARBOXAMIDES AND MEFENPYR-DIETHYL” (BAYER AKTIENGESELLSCHAFT, priority 2020, published 2023).

Experiments:
Format in all cases: in vivo
[1] = system: spring barley, HORVS Montoya; assay: Tank-mix; post-emergence: crop damage by herbicide with/without safener mefenpyr-diethyl
Procedure, shortened: (§1)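 Greenhouse-grown spring wheat and barley treated post-emergence at 1–3-leaf stage with herbicide alone or tank-mixed with safener, sprayed at various dosages in 300 l/ha water. Crop injury scored visually 1–3 weeks after treatment as % vs untreated (0 none, 100 complete kill).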

[2] = system: spring wheat, TRZAS Triso; assay: as above
Procedure, shortened: as §1

[3] = system: spring barley, HORVS Montoya; assay: Seed treatment with safener; post-emergence herbicide, crop damage; conditions: 21 DAT; for HER effect + SAF / Reduction [%] / Reduction [Difference]: mefenpyr-diethyl 0.5 g a.i./kg seed
Procedure, shortened: (§2)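 Wheat and barley seeds were coated with safener (g a.i./kg seed) in a slurry prediluted with milk, then sown and grown to BBCH 12. WP herbicides with 1 l/ha MERO in 300 l/ha water were sprayed post-emergence, with untreated-seed plants as reference. Crop damage (%) was scored visually at 10 and 21 DAT.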

[4] = system: spring wheat, TRZAS Triso; assay: as above; conditions: for HER effect + SAF [%] (crop damage) / Reduction [%] / Reduction [Difference]: mefenpyr-diethyl 0.5 g a.i./kg seed; for HER effect [%] (crop damage, herbicide without safener): no safener
Procedure, shortened: as §2

[5] = HER 2 g a.i./ha + mefenpyr-diethyl 50 g a.i./ha, 21 DAT
[6] = HER 2 g a.i./ha + mefenpyr-diethyl 50 g a.i./ha, 10 DAT
[7] = HER 32 g a.i./ha post-emergence
[8] = herbicide alone 32 g a.i./ha post-emergence
[9] = HER 8 g a.i./ha + mefenpyr-diethyl 50 g a.i./ha, 21 DAT
[10] = HER 32 g a.i./ha + mefenpyr-diethyl 100 g a.i./ha, 21 DAT
[11] = HER 8 g a.i./ha + mefenpyr-diethyl 50 g a.i./ha, 10 DAT
[12] = HER 32 g a.i./ha + mefenpyr-diethyl 100 g a.i./ha, 10 DAT
[13] = HER 1 g a.i./ha + mefenpyr-diethyl 50 g a.i./ha, 10 DAT
[14] = HER 1 g a.i./ha + mefenpyr-diethyl 50 g a.i./ha, 21 DAT
[15] = HER 16 g a.i./ha post-emergence

## COCCOC(=O)C1C=CC(NC(=O)C2(C)CC(c3cc(Cl)cc(C#N)c3)=NO2)C1 (stereo not drawn) [Example 1.5]
[1]; [5]
  HER effect + SAF: 0%
  Reduction [%]: 100%
  Reduction [Difference]: 20
[1]; herbicide alone 2 g a.i./ha, 21 DAT
  HER effect: 20%
[2]; [6]
  HER effect + SAF: 0%
  Reduction [%]: 100%
  Reduction [Difference]: 50
[2]; herbicide alone 2 g a.i./ha, 10 DAT
  HER effect: 50%
[3]; HER 2 g a.i./ha post-emergence
  HER effect + SAF: 0%
  Reduction [%]: 100%
  Reduction [Difference]: 20
[3]; [7]
  HER effect + SAF: 60%
  Reduction [%]: 25%
  Reduction [Difference]: 20
[3]; herbicide alone 2 g a.i./ha post-emergence
  HER effect: 20%
[3]; [8]
  HER effect: 80%
[4]; 21 DAT, HER dose 8 g a.i./ha
  HER effect + SAF [%] (crop damage): 10%
  Reduction [%]: 89%
  Reduction [Difference]: 80
  HER effect [%] (crop damage, herbicide without safener): 90%
[4]; 21 DAT, HER dose 32 g a.i./ha
  HER effect + SAF [%] (crop damage): 30%
  Reduction [%]: 68%
  Reduction [Difference]: 65
  HER effect [%] (crop damage, herbicide without safener): 95%

## COC(=O)C1C=CC(NC(=O)C2(C)CC(c3cccc(F)c3)=NO2)C1 (stereo not drawn) [Example 1.20]
[1]; [9]
  HER effect + SAF: 0%
  Reduction [%]: 100%
  Reduction [Difference]: 30
[1]; [10]
  HER effect + SAF: 40%
  Reduction [%]: 50%
  Reduction [Difference]: 40
[1]; herbicide alone 8 g a.i./ha, 21 DAT
  HER effect: 30%
[1]; herbicide alone 32 g a.i./ha, 21 DAT
  HER effect: 80%
[2]; [11]
  HER effect + SAF: 0%
  Reduction [%]: 100%
  Reduction [Difference]: 20
[2]; [12]
  HER effect + SAF: 30%
  Reduction [%]: 40%
  Reduction [Difference]: 20
[2]; herbicide alone 8 g a.i./ha, 10 DAT
  HER effect: 20%
[2]; herbicide alone 32 g a.i./ha, 10 DAT
  HER effect: 50%
[3]; HER 8 g a.i./ha post-emergence
  HER effect + SAF: 10%
  Reduction [%]: 67%
  Reduction [Difference]: 20
[3]; [7]
  HER effect + SAF: 20%
  Reduction [%]: 75%
  Reduction [Difference]: 60
[3]; herbicide alone 8 g a.i./ha post-emergence
  HER effect: 30%
[3]; [8]
  HER effect: 80%
[4]; 10 DAT, HER dose 8 g a.i./ha
  HER effect + SAF [%] (crop damage): 0%
  Reduction [%]: 100%
  Reduction [Difference]: 20
  HER effect [%] (crop damage, herbicide without safener): 20%
[4]; 10 DAT, HER dose 32 g a.i./ha
  HER effect + SAF [%] (crop damage): 0%
  Reduction [%]: 100%
  Reduction [Difference]: 50
  HER effect [%] (crop damage, herbicide without safener): 50%

## CC1(C(=O)NC2C=CC(C(=O)O)C2)CC(c2cc(F)cc(F)c2)=NO1 (stereo not drawn) [Example 1.36]
[1]; [13]
  HER effect + SAF: 60%
  Reduction [%]: 25%
  Reduction [Difference]: 20
[1]; herbicide alone 1 g a.i./ha, 10 DAT
  HER effect: 80%
[2]; [14]
  HER effect + SAF: 20%
  Reduction [%]: 76%
  Reduction [Difference]: 65
[2]; herbicide alone 1 g a.i./ha, 21 DAT
  HER effect: 85%
[3]; HER 4 g a.i./ha post-emergence
  HER effect + SAF: 50%
  Reduction [%]: 46%
  Reduction [Difference]: 43
[3]; [15]
  HER effect + SAF: 70%
  Reduction [%]: 26%
  Reduction [Difference]: 25
[3]; herbicide alone 4 g a.i./ha post-emergence
  HER effect: 93%
[3]; herbicide alone 16 g a.i./ha post-emergence
  HER effect: 95%
[4]; 21 DAT, HER dose 1 g a.i./ha
  HER effect + SAF [%] (crop damage): 0%
  Reduction [%]: 100%
  Reduction [Difference]: 85
  HER effect [%] (crop damage, herbicide without safener): 85%
[4]; 21 DAT, HER dose 4 g a.i./ha
  HER effect + SAF [%] (crop damage): 30%
  Reduction [%]: 68%
  Reduction [Difference]: 63
  HER effect [%] (crop damage, herbicide without safener): 93%
[4]; 21 DAT, HER dose 16 g a.i./ha
  HER effect + SAF [%] (crop damage): 50%
  Reduction [%]: 47%
  Reduction [Difference]: 45
  HER effect [%] (crop damage, herbicide without safener): 95%
